From patent US20250255984A1, “MNO NANOMATERIAL BASED INHIBITORS OF INFLAMMATION AND CANCER METASTASIS” (priority 2022, published 2025)
“Also recorded” adds a separate entry of the source.

How the values were obtained:
[1] = test system: 4T1 tumor; experiment: 4T1 metastasis tumor model, treatment with or without photothermal therapy; format: in vivo, Balb/c mice
[2] = test system: calf thymus DNA; experiment: PicoGreen DNA-binding assay; settings: TE buffer, different material:DNA mass ratios, unbound PicoGreen-labeled DNA
Experimental: The fluorescence intensity of the unbound PicoGreen®-DNA complex at 520 nm was measured with a multiwell plate reader via excitation at 490 nm.
Inflammatory circulating cfDNA released by PTT-damaged host cells might cause a severe inflammatory response, which may be mitigated by the scavenging of cfDNA. Therefore, to interrogate the cfDNA scavenging ability of the various nanoparticles, the inventors investigated the calf thymus DNA binding affinity of the nanoparticles in Tris-EDTA (TE) buffer with and without 10% FBS by measuring unbound PicoGreen®-labeled DNA (FIGS. 5D and 5E).

[3] = test system: TNF-α; experiment: TNF-α production by activated RAW264.7 macrophages; format: cell-based, murine; settings: 24 h, 50 and 100 μg/ml
Text: (§1) TLRs recognize a variety of PAMPs and DAMPs that induce the secretion of several proinflammatory cytokines. Inhibiting TLR activation and blocking DAMP-TLR interactions is a promising strategy for alleviating PTT-induced inflammation and reducing tumor regeneration and metastasis.

[4] = test system: COX-2 mRNA; experiment: COX-2 mRNA expression (RT-qPCR) in activated RAW264.7 cells; format: cell-based, murine; settings: 24 h
Text: as §1

[5] = test system: HEK-Blue hTLR9 cells; experiment: Agonist-induced TLR activation, HEK-Blue hTLR9 SEAP reporter cells; format: cell-based, human; settings: dose-dependent, presence or absence of FBS, 24 hours
Experimental: (§2) HEK-Blue hTLR3, hTLR8, and hTLR9 cells were obtained by co-transfecting the hTLR gene and an optimized secreted embryonic alkaline phosphatase (SEAP) reporter gene into HEK293 cells. HEK-Blue hTLR cells were cultured and maintained in DMEM with 10% FBS and 1% penicillin-streptomycin. […] After 24 hours, the supernatants were collected and mixed with Quanti-Blue™. TLR activation associated with SEAP activity was determined with a multiwell plate reader by measuring the OD at 620 nm. The cell densities (in a 96 well plate) used were 8×10^4 cells/well for HEK-Blue hTLR9 cells, 5×10^4 cells/well for HEK-Blue hTLR3 cells, and 4×10^4 cells/well for HEK-Blue hTLR8 cells.
(§3) We further studied nanoparticle-mediated inhibition of proinflammatory molecules-induced TLR activation by using HEK-Blue human TLR (hTLR) cells.
(§4) HEK-Blue hTLR3, hTLR8 and hTLR9 were obtained by co-transfecting the hTLR gene and an optimized secreted embryonic alkaline phosphatase (SEAP) reporter gene into HEK293 cells. HEK-Blue hTLR cells were cultured and maintained in DMEM with 10% FBS and 1% penicillin-streptomycin. […] TLR activation associated with SEAP activity was determined with a multiwell plate reader by measuring the OD at 620 nm.

[6] = test system: HEK-Blue hTLR3 cells; experiment: Agonist-induced TLR activation, HEK-Blue hTLR3 SEAP reporter cells; format: cell-based, human; settings: dose-dependent, presence or absence of FBS, 24 hours
Experimental: as §2, §3, §4

[7] = test system: HEK-Blue hTLR4 cells; experiment: Agonist-induced TLR activation, HEK-Blue hTLR4 reporter cells; format: cell-based, human; settings: dose-dependent, presence or absence of FBS, 24 hours
Text: as §3

[8] = without laser, intravenous three times per week

| Structure (SMILES) | survival rates of mice ([1]; after PTT) | tumor recurrence and metastasis ([1]; after laser (PTT)) | body weight of the mice ([1]; after laser (PTT), intravenous three times per week) | cytokine levels (IL-6, TNF-α and IL-1 beta) in mouse serum, ELISA ([1]; after laser (PTT), versus PBS and laser groups) | body weight of the mice [1, 8] | size of the tumors / tumor suppression [1, 8] | DNA binding affinity [2] | TNF-α production ([3]; CpG-activated RAW264.7 cells) | TNF-α production ([3]; LPS-activated RAW264.7 cells) | COX-2 mRNA expression ([4]; CpG-activated RAW264.7 cells) | COX-2 mRNA expression ([4]; LPS-activated RAW264.7 cells) | CpG-induced activation of HEK-Blue hTLR9 cells [5] | poly (I:C)-induced activation of HEK-Blue hTLR3 cells [6] | LPS-induced activation of HEK-Blue hTLR4 cells [7] |
| --- | --- | --- | --- | --- | --- | --- | --- | --- | --- | --- | --- | --- | --- | --- |
| COc1cc(/C=C/C(=O)CC(=O)/C=C/c2ccc(O)c(OC)c2)ccc1O [curcumin] | greatly improved | inhibited tumor recurrence and metastasis | increased body weight | clearly lower | did not show obvious effects | did not show obvious effects; also recorded: small effect | negligible DNA binding ability | slightly reduced | only slightly reduced | alleviated the generation of COX-2 mRNA in CpG-induced RAW264.7 cells to some extent | no obvious inhibitory effect | negligible inhibitory effect | negligible inhibitory effect | negligible inhibitory effect |
| O=C(OC[C@H]1O[C@@H](OC(=O)c2cc(O)c(O)c(OC(=O)c3cc(O)c(O)c(O)c3)c2)[C@H](OC(=O)c2cc(O)c(O)c(OC(=O)c3cc(O)c(O)c(O)c3)c2)[C@@H](OC(=O)c2cc(O)c(O)c(OC(=O)c3cc(O)c(O)c(O)c3)c2)[C@@H]1OC(=O)c1cc(O)c(O)c(OC(=O)c2cc(O)c(O)c(O)c2)c1)c1cc(O)c(O)c(OC(=O)c2cc(O)c(O)c(O)c2)c1 [tannic acid] |  |  |  |  |  |  | can bind to DNA |  |  |  |  |  |  |  |
